Results from patent US6911454B1, “Method for potentiating primary drugs in treating multidrug resistant disease” (priority 1989, dated 2005).
Where two headings read alike, the source gives them in different places.

Experiments:
[1] = tested on: CQ-resistant (W-2) strain of P. falciparum; test: 3H-adenosine incorporation, chloroquine-resistant P. falciparum; assay type: cell-based
Description: (§1) Chloroquine and qinghaosu are commonly used antimalarial drugs.
(§2) The dose (IC50) of each drug or each drug combination required to effect a 50% inhibition in the malarial activity of each strain was determined by establishing a dose response curve for each.
(§3) FCMSU1/Sudan strain and cloned Indochina (W-2) strain of P. falciparum were used. […] The two strains of the parasite were cultured according to the candle jar method of Trager and Jensen, Science, Vol. 193, pages 673-675 (1976). In a given experiment, four-day-old Petri dish cultures (approximately 10% parasitemia) were diluted with medium containing an amount of noninfected type A human erythrocytes to obtain a culture with a final hematocrit of 1.5% and parasitemia of 0.5-1.0%. The resulting culture was ready for addition to microtitration plates with ninety-six flat-bottom wells.
(§4) The testing procedure used was similar to that described by Desjardins et al. in “Antimicrobial Agents and Chemotherapy,” Vol. 16, pages 710-718 (1979). […] 25 microliters radioactive (0.5 microCi) [2,8-^3H] adenosine. The microtitration plates were incubated in a candle jar for an additional 18 hours, at 37° C.
(§5) As the malaria parasite grows ^3H-adenosine is metabolized and incorporates into polymeric RNA and DNA. The labeled polymers are trapped on glass fiber filters and unincorporated material is washed away. In the absence of drug there is 100% incorporation of the labeled material. When drugs interfere (directly or indirectly), an inhibitory dose of 50% (IC50) can be calculated. The experiments were repeated three times except where noted. Statistical analysis was done using Student's T-test for significance. Van Kyke et al. “Exp. Parasitol,” Vol. 64, pages 418-423 (1987).
(§6) The test procedure was basically the same as outlined above.

[2] = tested on: CQ-sensitive (FCMSU1/Sudan) strain of P. falciparum; test: 3H-adenosine incorporation, chloroquine-sensitive P. falciparum; assay type: cell-based
Description: as §1, §2, §3, §4, §5, §6

DX20 tumor = test: tumor measurements in nude mice bearing the DX20 tumor; assay type: in vivo
Description: (See FIG. 6). Tumor size was calculated using the formula (4 Pi/3) X*Y*2Z.
The study was done with 3-4 week old male balb-C nude mice. The animals were injected with DX20 1×10^7 cells.

[3] = Day 7 Prior to Treatment (baseline)
[4] = Day 24 After Treatment, d-tetrandrine days 6, 8, 10, doxorubicin 5.5 mg/kg day 12

COc1ccc2cc1Oc1ccc(cc1)C[C@H]1c3cc(c(OC)cc3CCN1C)Oc1c(OC)c(OC)cc3c1[C@H](C2)N(C)CC3 [TT, tetrandrine]
IC50 ([1]; R STRAIN, TT/CQ 10:1, mean ± S.D, read-out: IC50 DRUG COMBINATION TT(2.0 uM) CQ(0.2 uM)): 79.5 ± 16.1 nM
IC50 ([1]; R STRAIN, TT/QHS 10:1, mean ± S.D, read-out: IC50 DRUG COMBINATION TT(2.0 uM) QHS(0.2 uM)): 71.8 ± 13.8 nM
IC50 ([1]; Table III, R STRAIN, mean ± S.D, read-out: IC50 SINGLE DRUG): 198 ± 24.7 nM
IC50 ([1]; Table IV, R STRAIN, mean ± S.D, read-out: IC50 SINGLE DRUG): 206 ± 49.8 nM
IC50 ([1]; Table VII, chloroquine-resistant strain, drug alone, read-out: IC50 R): 120 nM
IC50 ([1]; read-out: IC50 DRUG COMBINATION TT(1.0 uM) CQ(0.3 uM), R STRAIN, TT/CQ 10:3, mean ± S.D): 79.5 ± 13.7 nM
IC50 ([1]; read-out: IC50 DRUG COMBINATION TT(1.0 uM) QHS(0.3 uM), R STRAIN, TT/QHS 10:3, mean ± S.D): 59.6 ± 13.7 nM
IC50 ([1]; read-out: IC50 DRUG COMBINATION TT(3.0 uM) CQ(0.1 uM), R STRAIN, TT/CQ 30:1, mean ± S.D): 125 ± 9.6 nM
IC50 ([1]; read-out: IC50 DRUG COMBINATION TT(3.0 uM) QHS(0.1 uM), R STRAIN, TT/QHS 30:1, mean ± S.D): 137 ± 41.6 nM
IC50 ([2]; S STRAIN, TT/CQ 10:1, mean ± S.D, read-out: IC50 DRUG COMBINATION TT(2.0 uM) CQ(0.2 uM)): 114 ± 23 nM
IC50 ([2]; S STRAIN, TT/QHS 10:1, mean ± S.D, read-out: IC50 DRUG COMBINATION TT(2.0 uM) QHS(0.2 uM)): 114 ± 6.3 nM
IC50 ([2]; Table III, S STRAIN, mean ± S.D, read-out: IC50 SINGLE DRUG): 498 ± 93.7 nM
IC50 ([2]; Table IV, S STRAIN, mean ± S.D, read-out: IC50 SINGLE DRUG): 410 ± 69 nM
IC50 ([2]; Table VII, chloroquine-sensitive strain, drug alone, read-out: IC50 S): 290 nM
IC50 ([2]; read-out: IC50 DRUG COMBINATION TT(1.0 uM) CQ(0.3 uM), S STRAIN, TT/CQ 10:3, mean ± S.D): 54.9 ± 7.1 nM
IC50 ([2]; read-out: IC50 DRUG COMBINATION TT(1.0 uM) QHS(0.3 uM), S STRAIN, TT/QHS 10:3, mean ± S.D): 71.9 ± 8.9 nM
IC50 ([2]; read-out: IC50 DRUG COMBINATION TT(3.0 uM) CQ(0.1 uM), S STRAIN, TT/CQ 30:1, mean ± S.D): 223 ± 38.6 nM
IC50 ([2]; read-out: IC50 DRUG COMBINATION TT(3.0 uM) QHS(0.1 uM), S STRAIN, TT/QHS 30:1, mean ± S.D): 220 ± 35.5 nM
Tumor Measurements Depth (DX20 tumor; [3]): 1.13
Tumor Measurements Length (DX20 tumor; [3]): 4.13
Tumor Measurements Width (DX20 tumor; [3]): 3.75
Tumor Measurements Depth (DX20 tumor; [4]): 24.66
Tumor Measurements Width (DX20 tumor; [4]): 26.16
